Experiments:
SB574TL based sugar beet = experiment: Field trial, phytotoxicity scoring on homozygous SB574TL mutant sugar beet; format: in vivo, Beta vulgaris; details: BBCH 14
Description: Based on SB574TL, F4—F6 seeds conferring the mutant allele of the endogenous ALS gene in the homozygous state were applied for further testing.

BERETTA = experiment: Field trial, phytotoxicity scoring on ALS inhibitor sensitive reference variety BERETTA; format: in vivo, Beta vulgaris; details: BBCH 14
Description: (§3) The water quantity applied in the various applications equaled 200 l/ha. At 8, 14, 16, 17, 28, and 31 days (as indicated in the various Tables) after application (DAA) of the respective ALS inhibitor herbicide(s), the damages (phytotoxicity/phyto) on the different sugar beet plants were scored according to the scale from 0% to 100%.
(§4) In this context, “0%” means “no phytotoxicity/phyto” and “100%” means plants were completely killed.

KLARINA = experiment: Field trial, phytotoxicity scoring on ALS inhibitor sensitive reference variety KLARINA; details: BBCH 14
Description: as §3, §4

[1] = test system: regenerated plants from foramsulfuron tolerant cell culture (SB574TL); experiment: Greenhouse herbicide treatment of plants regenerated from the foramsulfuron tolerant cell culture
Method: From this clone (SB574TL), shoots were regenerated in presence of the ALS inhibitor herbicide and then the shoots were transferred to MS medium containing 0.05 mg/l Naphthalene acetic acid (NAA).
(§1) During the first 10-15 days after transfer into soil containing substrate the plants were kept in an environment with high air humidity. During and after they were weaned to normal greenhouse air humidity regimes the plants were kept in the greenhouse under artificial light (12 h) at 20+−3° C./15+−2° C. day/night temperatures.
(§2) The herbicide doses tested were equivalent to 7-70 g a.i./ha for foramsulfuron and 1-10 g a.i./ha for iodosulfuron-methyl-sodium.

wild type plants = experiment: Greenhouse herbicide treatment of plants regenerated from wild type cell cultures; details: lowest doses tested (range 7-70 g a.i./ha foramsulfuron, 1-10 g a.i./ha iodosulfuron-methyl-sodium, mixtures 7:1)
Method: as §1, §2

[2] = test system: sugar beet cell cultures (genotype 7T9044); experiment: Selection of sugar beet cell colonies on foramsulfuron medium; format: cell-based, Beta vulgaris; details: 3×10^−6 M of foramsulfuron in medium
Description: Sugar beet cell cultures were initiated from seedlings of a diploid sugar beet genotype 7T9044 (as, for example, described by Alexander Dovzhenko, PhD Thesis, Title: “Towards plastid transformation in rapeseed (Brassica napus L.) and sugarbeet (Beta vulgaris L.)”, Ludwig-Maximilians-Universität München, Germany, 2001). Callus obtained therefrom was exposed to 10^−7 M foramsulfuron. Surviving and growing cell colonies were numbered and transferred after 4-6 weeks onto fresh medium containing 3×10^−7 M of the inhibitor. One of these cell colonies was able to grow not only at this concentration of the inhibitor but even in presence of 3×10^−6 M of foramsulfuron [CAS RN 173159-57-4].

COc1cc(OC)nc(NC(=O)NS(=O)(=O)c2ncccc2OCC(F)(F)F)n1 [Trifloxisulfuron-sodium (A1-32), trifloxysulfuron]
% phyto (SB574TL based sugar beet; 15 g/ha, 8 days (Table 3)): 0%
% phyto (SB574TL based sugar beet; 15 g/ha, 16 days): 0%
% phyto (SB574TL based sugar beet; 15 g/ha, 38 days): 0%
% phyto (BERETTA; 15 g/ha, 8 days): 80%
% phyto (BERETTA; 15 g/ha, 16 days): 98%
% phyto (BERETTA; 15 g/ha, 38 days): 100%

CCS(=O)(=O)c1cccnc1S(=O)(=O)NC(=O)Nc1nc(OC)cc(OC)n1 [Rimsulfuron (A1-26), rimsulfuron]
% phyto (KLARINA; 12.5 g/ha, 8 days): 81%
% phyto (KLARINA; 12.5 g/ha, 14 days): 85%
% phyto (KLARINA; 12.5 g/ha, 28 days): 76%

COC(=O)c1ccccc1S(=O)(=O)NC(=O)Nc1nc(C)cc(C)n1 [Sulfometuron-methyl (A1-27), sulfometuron-methyl]
% phyto (SB574TL based sugar beet; 60 g/ha, 8 days (Table 3)): 0%
% phyto (SB574TL based sugar beet; 60 g/ha, 16 days): 3%
% phyto (SB574TL based sugar beet; 60 g/ha, 38 days): 0%
% phyto (BERETTA; 60 g/ha, 8 days): 80%
% phyto (BERETTA; 60 g/ha, 16 days): 97%
% phyto (BERETTA; 60 g/ha, 38 days): 100%

COc1nc(C)nc(NC(=O)NS(=O)(=O)c2ccccc2OCCCl)n1 [Triasulfuron (A1-30), triasulfuron]
% phyto (SB574TL based sugar beet; 30 g/ha, 8 days (Table 3)): 0%
% phyto (SB574TL based sugar beet; 30 g/ha, 16 days): 0%
% phyto (SB574TL based sugar beet; 30 g/ha, 38 days): 0%
% phyto (BERETTA; 30 g/ha, 8 days): 80%
% phyto (BERETTA; 30 g/ha, 16 days): 98%
% phyto (BERETTA; 30 g/ha, 38 days): 100%

COc1cc(OC)nc(NC(=O)NS(=O)(=O)c2cc(NC=O)ccc2C(=O)N(C)C)n1 [Foramsulfuron (A1-13), foramsulfuron]
% phyto (KLARINA; 25 g/ha, 8 days): 85%
% phyto (KLARINA; 25 g/ha, 14 days): 83%
% phyto (KLARINA; 25 g/ha, 28 days): 86%
% phyto (KLARINA; 50 g/ha, 8 days): 90%
% phyto (KLARINA; 50 g/ha, 14 days): 92%
% phyto (KLARINA; 50 g/ha, 28 days): 94%
tolerance of regenerated plants to herbicide treatment ([1]; in vivo): tolerated even the highest herbicide doses
effect of herbicide treatment on wild type plants (wild type plants): killed
growth of selected cell colony (clone SB574TL) in presence of the inhibitor [2]: able to grow

CC(C)C1(C)N=C(c2nc3ccccc3cc2C(=O)O)NC1=O (centres unmarked) [Imazaquin (B1-5), imazaquin]
% phyto (SB574TL based sugar beet; 100 g/ha, 8 days (Table 3)): 0%
% phyto (SB574TL based sugar beet; 100 g/ha, 16 days): 0%
% phyto (SB574TL based sugar beet; 100 g/ha, 38 days): 0%
% phyto (BERETTA; 100 g/ha, 8 days): 80%
% phyto (BERETTA; 100 g/ha, 16 days): 98%
% phyto (BERETTA; 100 g/ha, 38 days): 100%

COc1cc(OC)nc(Oc2cccc(Oc3nc(OC)cc(OC)n3)c2C(=O)O)n1 [Bispyribac-sodium (C1-1), bispyribac-sodium]
% phyto (KLARINA; 50 g/ha, 8 days): 90%
% phyto (KLARINA; 50 g/ha, 14 days): 98%
% phyto (KLARINA; 50 g/ha, 28 days): 99%
% phyto (SB574TL based sugar beet; 50 g/ha, 8 days): 23%
% phyto (SB574TL based sugar beet; 50 g/ha, 14 days): 30%
% phyto (SB574TL based sugar beet; 50 g/ha, 28 days): 0%

COC(=O)c1ccc(I)cc1S(=O)(=O)[N-]C(=O)Nc1nc(C)nc(OC)n1.[Na+] [Iodosulfuron-methyl-sodium (A1-16), iodosulfuron-methyl-sodium]
% phyto (KLARINA; 7 g/ha, 8 days): 90%
% phyto (KLARINA; 7 g/ha, 14 days): 97%
% phyto (KLARINA; 7 g/ha, 28 days): 100%
% phyto (KLARINA; 15 gai/ha, 8 DAA): 83%
% phyto (KLARINA; 15 gai/ha, 17 DAA): 98%
% phyto (KLARINA; 15 gai/ha, 31 DAA): 100%
tolerance of regenerated plants to herbicide treatment ([1]; highest doses tested (range 7-70 g a.i./ha foramsulfuron, 1-10 g a.i./ha iodosulfuron-methyl-sodium, mixtures in the ratio 7:1), greenhouse): tolerated even the highest herbicide doses
effect of herbicide treatment on wild type plants (wild type plants): killed
% phyto (SB574TL based sugar beet; 7 g/ha, 8 days): 0%
% phyto (SB574TL based sugar beet; 7 g/ha, 14 days): 0%
% phyto (SB574TL based sugar beet; 7 g/ha, 28 days): 0%
% phyto (SB574TL based sugar beet; 15 gai/ha, 8 DAA): 0%
% phyto (SB574TL based sugar beet; 15 gai/ha, 17 DAA): 0%
% phyto (SB574TL based sugar beet; 15 gai/ha, 31 DAA): 0%

COC(=O)c1csc(C)c1S(=O)(=O)NC(=O)n1nc(OC)n(C)c1=O [Thiencarbazone-methyl (A2-3), thiencarbazone-methyl]
% phyto (KLARINA; 15 g/ha, 8 days): 90%
% phyto (KLARINA; 15 g/ha, 14 days): 97%
% phyto (KLARINA; 15 g/ha, 28 days): 100%
% phyto (KLARINA; 30 g/ha, 8 days): 90%
% phyto (KLARINA; 30 g/ha, 14 days): 97%
% phyto (KLARINA; 30 g/ha, 28 days): 100%

COC(=O)c1sccc1S(=O)(=O)NC(=O)Nc1nc(C)nc(OC)n1 [Thifensulfuron-methyl (A1-29), thifensulfuron-methyl]
% phyto (KLARINA; 7.5 g/ha, 8 days): 90%
% phyto (KLARINA; 7.5 g/ha, 14 days): 98%
% phyto (KLARINA; 7.5 g/ha, 28 days): 100%
